In patent publication US6913760B2, “Drug delivery composition” (New England Medical Hospitals, Inc., priority 2001, dated 2005):
Where “and” joins values, the source holds several entries; their conditions need not be identical. Identical values can stand only once. Marks after values point to notes of the source that are not given here.

Assays:
rats [1] = assay: Tail flick test after intrathecal implantation of PLGA rods; format: in vivo; details: for % MPE, tail flick test, Average: average of 6 rats
rats [2] = assay: Paw withdrawal test after intrathecal implantation of PLGA rods; format: in vivo; details: for % MPE, paw withdrawal test, Average: average of 6 rats
[3] = Drug release studies of PLGA 85:15 rods (Example 2); format: physicochemical
rats [4] = assay: Anesthesia after intrathecal polymeric implants, all sites tested (Example 2); format: in vivo; details: intrathecal rods
[5] = trapezoidal method, individual rats
[6] = trapezoidal method, mean of 6 rats

SMILES: C[C@@H](NC(=O)[C@@H](N)Cc1ccc(O)cc1)C(=O)NCC(=O)N[C@@H](Cc1ccccc1)C(=O)NNC(=O)[C@H](Cc1ccccc1)NC(=O)CNC(=O)[C@@H](C)NC(=O)[C@@H](N)Cc1ccc(O)cc1 [Biphalin]
- % MPE, tail flick test, Average (rats [1]; 2h): 86.67 % MPE
- % MPE, tail flick test (rats [1]; 2h after intrathecal implantation of PLGA rod, individual rats): 80 % MPE and 96.46 % MPE and 86.99 % MPE and 84.66 % MPE and 76.49 % MPE and 95.43 % MPE
- % MPE, tail flick test, Average (rats [1]; 4h): 91.63 % MPE
- % MPE, tail flick test (rats [1]; 4h, individual rats): 85.6 % MPE and 83.65 % MPE and 91.6 % MPE and 100 % MPE (2×) and 88.92 % MPE
- Area under the curve (AUC), tail flick test (rats [1]; % MPE versus time in days, trapezoidal method, individual rats): 280.84 and 263.66 and 251.97 and 276.26 and 343.10 and 236.51
- Area under the curve (AUC), tail flick test, Mean (rats [1]; % MPE versus time in days, trapezoidal method, mean of 6 rats): 275.39 *
- % MPE, tail flick test, Average (rats [1]; D1): 82.2 % MPE
- % MPE, tail flick test (rats [1]; D1, individual rats): 84.8 % MPE and 71.9346 % MPE and 75.88 % MPE and 100 % MPE and 72.97 % MPE and 87.63 % MPE
- % MPE, tail flick test, Average (rats [1]; D2): 73.13 % MPE
- % MPE, tail flick test (rats [1]; D2, individual rats): 73.6 % MPE and 73.297 % MPE and 69.9187 % MPE and 90.48 % MPE and 55.14 % MPE and 76.34 % MPE
- % MPE, tail flick test, Average (rats [1]; D3): 46.93 % MPE
- % MPE, tail flick test (rats [1]; D3, individual rats): 32.53 % MPE and 35.15 % MPE and 36.59 % MPE and 73.54 % MPE and 50.27 % MPE and 53.49 % MPE
- % MPE, tail flick test, Average (rats [1]; D4): 24 % MPE
- % MPE, tail flick test (rats [1]; D4, individual rats): 22.67 % MPE and 20.16 % MPE and 31.17 % MPE and 33.33 % MPE and 21.08 % MPE and 15.5914 % MPE
- % MPE, tail flick test, Average (rats [1]; D5): 9.086 % MPE
- % MPE, tail flick test (rats [1]; D5, individual rats): 9.067 % MPE and 12.26 % MPE and 21.14 % MPE and 3.175 % MPE and 1.081 % MPE and 7.796 % MPE
- % MPE, tail flick test, Average (rats [1]; D6): 2.009 % MPE
- % MPE, tail flick test (rats [1]; D6, individual rats): 10.4 % MPE and 5.177 % MPE and 4.065 % MPE and 2.381 % MPE and −4.324 ^ % MPE and −5.645 ^ % MPE
- % MPE, paw withdrawal test, Average (rats [2]; 2h, L): 100 % MPE
- % MPE, paw withdrawal test, Average (rats [2]; 2h, R): 100 % MPE
- % MPE, paw withdrawal test (rats [2]; 2h, left (L) hind paw, individual rats): 100 % MPE
- % MPE, paw withdrawal test (rats [2]; 2h, right (R) hind paw, individual rats): 100 % MPE
- % MPE, paw withdrawal test, Average (rats [2]; 4h, L): 100 % MPE
- % MPE, paw withdrawal test (rats [2]; 4h, L, individual rats): 100 % MPE
- % MPE, paw withdrawal test, Average (rats [2]; 4h, R): 100 % MPE
- % MPE, paw withdrawal test (rats [2]; 4h, R, individual rats): 100 % MPE
- % MPE, paw withdrawal test, Average (rats [2]; D1, L): 14.47 % MPE
- % MPE, paw withdrawal test (rats [2]; D1, L, individual rats): 30.27 % MPE and 7.30 % MPE and −1.89 % MPE and 10.92 % MPE and 18.44 % MPE and 21.78 % MPE
- % MPE, paw withdrawal test, Average (rats [2]; D1, R): 16.56 % MPE
- % MPE, paw withdrawal test (rats [2]; D1, R, individual rats): 38.69 % MPE and 10.29 % MPE and −2.32 % MPE and 10.84 % MPE and 16.61 % MPE and 25.27 % MPE
- % MPE, paw withdrawal test, Average (rats [2]; D2, L): 8.34 % MPE
- % MPE, paw withdrawal test (rats [2]; D2, L, individual rats): 6.46 % MPE and 1.46 % MPE and −5.68 % MPE and 12.97 % MPE and 20.92 % MPE and 13.93 % MPE
- % MPE, paw withdrawal test, Average (rats [2]; D2, R): 6.03 % MPE
- % MPE, paw withdrawal test (rats [2]; D2, R, individual rats): 4.92 % MPE and 0.37 % MPE and −6.20 % MPE and 9.44 % MPE and 16.61 % MPE and 11.03 % MPE
- % MPE, paw withdrawal test, Average (rats [2]; D3, L): 7.52 % MPE
- % MPE, paw withdrawal test (rats [2]; D3, L, individual rats): −2.04 % MPE and 10.58 % MPE and 12.12 % MPE and 17.06 % MPE and 12.06 % MPE and −4.64 % MPE
- % MPE, paw withdrawal test, Average (rats [2]; D3, R): 8.40 % MPE
- % MPE, paw withdrawal test (rats [2]; D3, R, individual rats): 7.54 % MPE and 9.92 % MPE and 9.30 % MPE and 13.64 % MPE and 11.07 % MPE and −1.07 % MPE
- % MPE, paw withdrawal test, Average (rats [2]; D4, L): 1.86 % MPE
- % MPE, paw withdrawal test (rats [2]; D4, L, individual rats): 2.27 % MPE and 11.94 % MPE and 2.84 % MPE and 2.14 % MPE and 0.34 % MPE and −8.39 % MPE
- % MPE, paw withdrawal test, Average (rats [2]; D4, R): 1.02 % MPE
- % MPE, paw withdrawal test (rats [2]; D4, R, individual rats): −0.78 % MPE and 9.44 % MPE and 2.21 % MPE and −2.14 % MPE and 3.28 % MPE and −5.88 % MPE
- % MPE, paw withdrawal test, Average (rats [2]; D5, L): 3.36 % MPE
- % MPE, paw withdrawal test (rats [2]; D5, L, individual rats): 18.18 % MPE and 15.02 % MPE and 2.13 % MPE and −5 % MPE and 4.42 % MPE and −14.60 % MPE
- % MPE, paw withdrawal test, Average (rats [2]; D5, R): 4.72 % MPE
- % MPE, paw withdrawal test (rats [2]; D5, R, individual rats): 21.32 % MPE and 17.48 % MPE and 0.37 % MPE and −2.49 % MPE and 8.52 % MPE and −16.91 % MPE
- % MPE, paw withdrawal test, Average (rats [2]; D6, L): 0.45 % MPE
- % MPE, paw withdrawal test (rats [2]; D6, L, individual rats): 14.39 % MPE and 2.73 % MPE and −0.35 % MPE and −5.71 % MPE and −0.68 % MPE and −7.66 % MPE
- % MPE, paw withdrawal test, Average (rats [2]; D6, R): 0.00 % MPE
- % MPE, paw withdrawal test (rats [2]; D6, R, individual rats): 15.89 % MPE and 2.45 % MPE and −3.32 % MPE and −5.34 % MPE and 0.98 % MPE and −10.6 % MPE
- Area under the curve (AUC), paw withdrawal test (left side) (rats [2]; [5]): 41.94 and 82.35 and 118.40 and 104.74 and 73.61 and 86.69
- Area under the curve (AUC), paw withdrawal test (right side) (rats [2]; [5]): 41.65 and 79.45 and 111.20 and 93.88 and 75.91 and 110.34
- Area under the curve (AUC), paw withdrawal test (left side), Mean (rats [2]; [6]): 84.62 *
- Area under the curve (AUC), paw withdrawal test (right side), Mean (rats [2]; [6]): 85.40 *
- release order [3]: two phases
- duration of anesthesia/analgesia (rats [4]): about 3 days
